These results are taken from patent US11891359B2, “Prenylated psilocybin derivatives and methods of using” (ENVERIC B[…] INC., priority 2021, dated 2024).

A short description of the series: Solubility in the one-pot biocatalysis reaction mixture. In kind it is physicochemical. The note with it: undiluted one-pot biocatalysis reaction mixture (5 mL), 30 °C, aqueous buffer; undiluted 5 mL reaction (25 mM Tris-HCl pH 8.0); dilution to 40 mL and pH 6 increased solubility. How it is done: Referring further to FIG. 13A, Step 1 was conducted in vitro using biocatalytic conversion. Three recombinant enzymes, the prenyl transferase PriB (SEQ.ID NO: 24), in addition to PhoNxt (SEQ.ID NO: 30), and IPKmt (SEQ.ID NO: 32) were individually expressed in E. coli using the following plasmids, respectively: pET26b(+)-PriB, pET28a(+)-IPKmt, and pET21(+)-PhoNxt. Prenyl transferase PriB (SEQ.ID NO: 24) catalyzes the stereospecific 6-prenylation of tryptophan with dimethylallyl pyrophosphate (DMAPP) as the prenyl-donor. A cDNA encoding PriB enzyme (SEQ.ID NO: 23) was synthesized and cloned into pET26b(+) vector by service provider GenScript (www.genscript.com) in-frame with a vector-encoded, N-terminal HIS epitope tag. PhoNxt (SEQ.ID NO: 30) is a non-specific acid phosphatase, while IPKmt (SEQ.ID NO: 32) is an isopentenyl phosphate kinase. Together, these two enzymes can use dimethylallyl alcohol (DMAOH) (www.sigmaaldrich.com) as the starting substrate to produce DMAPP, which in turn is a required co-substrate for PriB. cDNAs encoding IPkmt (SEQ.ID NO: 31) and PhoNxt (SEQ.ID NO: 29) were synthesized and cloned into E.coli expression vectors pET28a(+) and pET21(+), respectively using the Clonal Genes service of Twist Bioscience. Specifically, IPKmt was cloned between the NdeI and XhoI sites of pET28a(+) thus enabling an in-frame, N-terminal HIS tag in the corresponding protein. […]

Take `CC(C)=CCc1ccc2c(C[C@H](N)C(=O)O)c[nH]c2c1` [6-dimethylallyl-tryptophan]: the solubility (in general, how much of the substance goes into solution per volume) was less than 1100 µg/mL.
